Reference: paper PMC6990627 (ACS Omega, 2020)
Where “and” joins values, the source holds several entries; their conditions need not be identical. Equal values may be shown once. Where a name gives a salt, the structure may show the parent alone. Read-outs that look alike come from different tables or passages of the source.

Key:
EeAChE = EeAChE (Electrophorus electricus, UniProt O42275); assay: Ellman assay, EeAChE inhibition; assay type: biochemical; settings: average of three determinations
eqBChE [1] = target: T1, eqBChE (Equus caballus, UniProt P81908); assay: Ellman assay, eqBChE inhibition; assay type: biochemical, equine; settings: screened at 10 and 100 μM
AChE = settings: read-out: AChE IC50, cited from earlier work
eqBChE [2] = target: T1, eqBChE; assay: Enzyme kinetics; assay type: biochemical, equine; settings: Lineweaver-Burk plot

EeAChE, sequence (O42275 24-633): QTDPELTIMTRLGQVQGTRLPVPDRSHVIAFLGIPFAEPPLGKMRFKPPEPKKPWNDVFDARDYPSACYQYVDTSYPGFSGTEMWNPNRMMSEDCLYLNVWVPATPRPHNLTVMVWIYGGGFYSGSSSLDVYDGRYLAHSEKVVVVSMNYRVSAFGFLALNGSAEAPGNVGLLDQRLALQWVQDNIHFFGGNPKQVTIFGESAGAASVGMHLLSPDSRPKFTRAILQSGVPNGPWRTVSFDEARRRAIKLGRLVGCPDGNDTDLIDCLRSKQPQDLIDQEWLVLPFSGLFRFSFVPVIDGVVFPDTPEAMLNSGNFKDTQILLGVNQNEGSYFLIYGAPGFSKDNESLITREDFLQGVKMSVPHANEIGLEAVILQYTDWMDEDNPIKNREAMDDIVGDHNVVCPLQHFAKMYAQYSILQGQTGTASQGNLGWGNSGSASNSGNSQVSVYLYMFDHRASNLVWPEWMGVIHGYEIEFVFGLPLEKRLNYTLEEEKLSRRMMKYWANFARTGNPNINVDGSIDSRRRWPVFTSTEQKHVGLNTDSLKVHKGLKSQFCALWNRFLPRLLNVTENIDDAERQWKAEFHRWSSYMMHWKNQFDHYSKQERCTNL
T1 sequence (P81908 whole entry): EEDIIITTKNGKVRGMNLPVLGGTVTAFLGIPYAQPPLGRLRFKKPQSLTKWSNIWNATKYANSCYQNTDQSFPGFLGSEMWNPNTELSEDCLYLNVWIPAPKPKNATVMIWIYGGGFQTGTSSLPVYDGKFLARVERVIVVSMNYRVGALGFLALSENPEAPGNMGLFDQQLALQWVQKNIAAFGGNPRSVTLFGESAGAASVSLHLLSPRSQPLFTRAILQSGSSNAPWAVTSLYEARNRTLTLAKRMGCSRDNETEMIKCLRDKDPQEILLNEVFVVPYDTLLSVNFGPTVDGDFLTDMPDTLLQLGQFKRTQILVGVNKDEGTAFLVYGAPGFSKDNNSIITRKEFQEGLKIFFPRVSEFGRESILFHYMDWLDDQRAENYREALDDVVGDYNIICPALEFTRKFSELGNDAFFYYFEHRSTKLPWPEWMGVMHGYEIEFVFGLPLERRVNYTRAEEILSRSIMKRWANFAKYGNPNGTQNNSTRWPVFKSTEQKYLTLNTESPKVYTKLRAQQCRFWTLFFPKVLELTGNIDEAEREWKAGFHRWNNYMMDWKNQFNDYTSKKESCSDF

| Structure (SMILES) | IC50 (EeAChE) | activity against BChE (in words) (eqBChE [1]) | IC50 (AChE; ref 19) [µM] | IC50 (AChE; ref 20) [µM] | type of inhibition, eqBChE (eqBChE [2]) |
| --- | --- | --- | --- | --- | --- |
| Cc1cc(O)c2c(c1)C(=O)c1cccc(O)c1C2=O [chrysophanol] | 34 µM and 33.7 µM | weakly active | 68.6 | 75.8 |  |
| COc1cc2c(cc1OC)C(=O)C(CC1CCN(Cc3ccccc3)CC1)C2 (stereo not drawn) [donepezil HCl, donepezil hydrochloride] |  |  |  |  | noncompetitive |
| Cc1cc(O)c2c(c1)C(=O)c1cc(O)cc(O)c1C2=O [emodin] | 15 µM and 15.2 µM | weakly active | 9.17 | 21.8 |  |
| COc1cc(O)c2c(c1)C(=O)c1cc(C)cc(O)c1C2=O [physcion] | 12 µM and 12.2 µM | weakly active | 8.25 |  |  |
